Experimental data taken from ChEMBL document CHEMBL5260810, “Inhibition of bromodomain-containing protein 9 for the prevention of epigenetically-defined drug resistance” (Bioorg Med Chem Lett, 2017).

Experiments:
CAL-120 = assay: Cytotoxicity against human CAL-120 cells measured after 8 days; assay type: functional, cell-based; conditions: CAL-120, 192 h
[1] = Cytotoxicity against human Ci-1 cells measured after 8 days; assay type: functional, cell-based; conditions: Ci-1, 192 h
KARPAS-422 = assay: Cytotoxicity against human KARPAS-422 cells measured after 8 days; assay type: functional, cell-based; conditions: KARPAS-422, 192 h
COLO 205 = assay: Cytotoxicity against human COLO 205 cells measured after 8 days; assay type: functional, cell-based; conditions: COLO 205, 192 h
MEL-JUSO = assay: Cytotoxicity against human MEL-JUSO cells measured after 8 days; assay type: functional, cell-based; conditions: 192 h
[2] = Cytotoxicity against human HCC4019 cells measured after 8 days; assay type: functional, cell-based; conditions: HCC4019, 192 h
GTL 16 cell line = assay: Cytotoxicity against human GTL 16 cell line measured after 8 days; assay type: functional, cell-based; conditions: GTL 16, 192 h
SW480 = assay: Cytotoxicity against human SW480 cells measured after 8 days; assay type: functional, cell-based; conditions: SW480, 192 h
[3] = molecular target: T1, Ephrin type-A receptor 1 (Homo sapiens) (UniProt P21709); assay: Inhibition of EphA1 (unknown origin) at 1 uM relative to control
T1 sequence (whole entry): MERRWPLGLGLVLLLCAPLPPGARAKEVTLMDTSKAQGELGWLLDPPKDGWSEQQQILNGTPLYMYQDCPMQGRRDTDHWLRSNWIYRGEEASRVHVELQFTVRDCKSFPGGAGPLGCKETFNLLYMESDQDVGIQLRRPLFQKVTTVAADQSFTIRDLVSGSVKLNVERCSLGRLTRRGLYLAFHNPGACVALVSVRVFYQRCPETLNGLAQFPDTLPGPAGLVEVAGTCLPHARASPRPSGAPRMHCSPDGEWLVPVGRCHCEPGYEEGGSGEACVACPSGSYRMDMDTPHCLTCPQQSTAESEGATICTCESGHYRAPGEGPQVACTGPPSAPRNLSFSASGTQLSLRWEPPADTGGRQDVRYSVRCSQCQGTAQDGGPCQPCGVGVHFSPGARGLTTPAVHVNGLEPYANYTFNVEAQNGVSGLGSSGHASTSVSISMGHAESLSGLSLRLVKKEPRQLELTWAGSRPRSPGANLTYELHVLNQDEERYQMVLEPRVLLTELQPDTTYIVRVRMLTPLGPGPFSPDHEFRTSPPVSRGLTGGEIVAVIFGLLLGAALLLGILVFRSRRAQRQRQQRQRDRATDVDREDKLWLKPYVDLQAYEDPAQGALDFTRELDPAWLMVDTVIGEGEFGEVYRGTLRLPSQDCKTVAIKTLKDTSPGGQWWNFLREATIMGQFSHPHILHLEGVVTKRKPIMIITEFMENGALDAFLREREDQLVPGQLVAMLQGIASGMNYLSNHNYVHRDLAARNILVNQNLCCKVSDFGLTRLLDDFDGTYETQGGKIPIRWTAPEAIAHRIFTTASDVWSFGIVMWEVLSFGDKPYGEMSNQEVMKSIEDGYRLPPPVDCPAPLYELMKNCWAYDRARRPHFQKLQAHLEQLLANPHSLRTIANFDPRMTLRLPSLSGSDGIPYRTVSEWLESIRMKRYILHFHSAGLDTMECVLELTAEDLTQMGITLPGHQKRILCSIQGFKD

BT-549 = assay: Cytotoxicity against human BT-549 cells measured after 8 days; assay type: functional, cell-based; conditions: BT-549, 192 h
[4] = Cytotoxicity against human KMM-1 cells measured after 8 days; assay type: functional, cell-based; conditions: KMM-1, 192 h
NCI-H2009 = assay: Cytotoxicity against human NCI-H2009 cells measured after 8 days; assay type: functional, cell-based; conditions: NCI-H2009, 192 h
[5] = Cytotoxicity against human NCI-H322T cells measured after 8 days; assay type: functional, cell-based; conditions: 192 h
Homo sapiens = species: Homo sapiens; assay: Binding affinity to GABA-gated chloride channel (unknown origin) at 10 uM by antagonist radioligand-based assay relative to control; parameters: scale not given: the % may be the effect or the level left; conditions: time 60.0 min
[6] = Cytotoxicity against human OCI-M2 cells measured after 8 days; assay type: functional, cell-based; conditions: OCI-M2, 192 h
AU565 = assay: Cytotoxicity against human AU565 cells measured after 8 days; assay type: functional, cell-based; conditions: AU565, 192 h
[7] = molecular target: Bromodomain adjacent to zinc finger domain protein 2A (Homo sapiens, UniProt Q9UIF9); assay: Binding affinity to human partial length BAZ2A (M1792 to L1905 residues) expressed in bacterial expression system by BROMOscan assay
DAN-G = assay: Cytotoxicity against human DAN-G cells measured after 8 days; assay type: functional, cell-based; conditions: 192 h
[8] = molecular target: Bromodomain-containing protein 8 (Homo sapiens, UniProt Q9H0E9); assay: Binding affinity to BRD8 bromodomain 1 (unknown origin) by BROMOscan assay
[9] = molecular target: Receptor-type tyrosine-protein kinase FLT3 (Homo sapiens) (UniProt P36888); assay: Inhibition of Flt3 (unknown origin) at 1 uM relative to control
MFM-223 = assay: Cytotoxicity against human MFM-223 cells measured after 8 days; assay type: functional, cell-based; conditions: MFM-223, 192 h

Bromodomain adjacent to zinc finger domain protein 2A, sequence (Q9UIF9 whole entry, the tested form may be a part): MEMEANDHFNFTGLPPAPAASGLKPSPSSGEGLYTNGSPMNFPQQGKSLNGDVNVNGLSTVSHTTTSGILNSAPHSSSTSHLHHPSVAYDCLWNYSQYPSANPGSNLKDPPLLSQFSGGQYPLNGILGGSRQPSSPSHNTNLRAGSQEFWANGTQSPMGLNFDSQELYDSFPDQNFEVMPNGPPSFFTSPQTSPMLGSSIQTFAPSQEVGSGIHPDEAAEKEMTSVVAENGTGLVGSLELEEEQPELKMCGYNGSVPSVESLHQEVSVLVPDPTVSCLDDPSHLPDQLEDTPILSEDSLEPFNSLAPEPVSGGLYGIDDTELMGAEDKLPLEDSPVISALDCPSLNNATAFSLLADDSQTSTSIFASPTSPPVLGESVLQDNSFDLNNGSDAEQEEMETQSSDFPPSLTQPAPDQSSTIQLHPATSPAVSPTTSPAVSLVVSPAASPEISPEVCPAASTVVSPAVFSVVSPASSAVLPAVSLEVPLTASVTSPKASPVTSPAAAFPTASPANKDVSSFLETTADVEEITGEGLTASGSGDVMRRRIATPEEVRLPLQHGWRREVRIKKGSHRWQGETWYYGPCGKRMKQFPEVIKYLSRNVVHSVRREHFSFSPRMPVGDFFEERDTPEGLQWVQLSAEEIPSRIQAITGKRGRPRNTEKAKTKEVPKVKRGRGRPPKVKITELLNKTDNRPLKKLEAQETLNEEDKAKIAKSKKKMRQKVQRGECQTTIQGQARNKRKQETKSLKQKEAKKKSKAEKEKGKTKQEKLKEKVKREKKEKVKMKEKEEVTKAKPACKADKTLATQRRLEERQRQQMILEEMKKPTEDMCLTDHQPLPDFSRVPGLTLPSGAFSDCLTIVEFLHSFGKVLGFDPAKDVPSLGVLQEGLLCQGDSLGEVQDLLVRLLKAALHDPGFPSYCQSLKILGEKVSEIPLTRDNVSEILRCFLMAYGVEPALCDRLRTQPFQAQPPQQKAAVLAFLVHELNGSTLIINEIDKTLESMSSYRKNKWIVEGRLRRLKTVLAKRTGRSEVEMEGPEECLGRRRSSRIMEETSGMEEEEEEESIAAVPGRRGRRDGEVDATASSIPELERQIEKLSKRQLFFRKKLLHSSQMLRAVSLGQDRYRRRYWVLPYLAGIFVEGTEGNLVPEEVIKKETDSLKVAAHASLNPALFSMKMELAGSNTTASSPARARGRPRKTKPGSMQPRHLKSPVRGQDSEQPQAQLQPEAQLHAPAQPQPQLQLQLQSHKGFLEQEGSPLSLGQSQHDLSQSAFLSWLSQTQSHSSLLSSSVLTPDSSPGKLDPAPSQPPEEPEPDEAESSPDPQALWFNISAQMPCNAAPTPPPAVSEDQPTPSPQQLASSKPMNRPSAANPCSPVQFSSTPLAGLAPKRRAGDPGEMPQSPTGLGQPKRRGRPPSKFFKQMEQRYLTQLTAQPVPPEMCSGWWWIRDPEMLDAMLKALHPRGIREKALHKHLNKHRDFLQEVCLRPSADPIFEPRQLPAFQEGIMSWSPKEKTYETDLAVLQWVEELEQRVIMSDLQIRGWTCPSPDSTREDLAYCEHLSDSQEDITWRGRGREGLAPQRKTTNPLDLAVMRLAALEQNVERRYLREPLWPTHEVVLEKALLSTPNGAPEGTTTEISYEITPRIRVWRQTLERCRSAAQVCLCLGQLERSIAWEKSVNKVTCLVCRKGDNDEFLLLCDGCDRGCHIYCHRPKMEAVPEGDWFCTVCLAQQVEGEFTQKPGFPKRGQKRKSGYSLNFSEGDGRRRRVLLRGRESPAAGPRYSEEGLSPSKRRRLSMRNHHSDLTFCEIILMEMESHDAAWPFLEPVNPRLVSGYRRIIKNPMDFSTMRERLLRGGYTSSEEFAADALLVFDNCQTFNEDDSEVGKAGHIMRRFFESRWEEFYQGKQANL
Bromodomain-containing protein 8, sequence (Q9H0E9 whole entry): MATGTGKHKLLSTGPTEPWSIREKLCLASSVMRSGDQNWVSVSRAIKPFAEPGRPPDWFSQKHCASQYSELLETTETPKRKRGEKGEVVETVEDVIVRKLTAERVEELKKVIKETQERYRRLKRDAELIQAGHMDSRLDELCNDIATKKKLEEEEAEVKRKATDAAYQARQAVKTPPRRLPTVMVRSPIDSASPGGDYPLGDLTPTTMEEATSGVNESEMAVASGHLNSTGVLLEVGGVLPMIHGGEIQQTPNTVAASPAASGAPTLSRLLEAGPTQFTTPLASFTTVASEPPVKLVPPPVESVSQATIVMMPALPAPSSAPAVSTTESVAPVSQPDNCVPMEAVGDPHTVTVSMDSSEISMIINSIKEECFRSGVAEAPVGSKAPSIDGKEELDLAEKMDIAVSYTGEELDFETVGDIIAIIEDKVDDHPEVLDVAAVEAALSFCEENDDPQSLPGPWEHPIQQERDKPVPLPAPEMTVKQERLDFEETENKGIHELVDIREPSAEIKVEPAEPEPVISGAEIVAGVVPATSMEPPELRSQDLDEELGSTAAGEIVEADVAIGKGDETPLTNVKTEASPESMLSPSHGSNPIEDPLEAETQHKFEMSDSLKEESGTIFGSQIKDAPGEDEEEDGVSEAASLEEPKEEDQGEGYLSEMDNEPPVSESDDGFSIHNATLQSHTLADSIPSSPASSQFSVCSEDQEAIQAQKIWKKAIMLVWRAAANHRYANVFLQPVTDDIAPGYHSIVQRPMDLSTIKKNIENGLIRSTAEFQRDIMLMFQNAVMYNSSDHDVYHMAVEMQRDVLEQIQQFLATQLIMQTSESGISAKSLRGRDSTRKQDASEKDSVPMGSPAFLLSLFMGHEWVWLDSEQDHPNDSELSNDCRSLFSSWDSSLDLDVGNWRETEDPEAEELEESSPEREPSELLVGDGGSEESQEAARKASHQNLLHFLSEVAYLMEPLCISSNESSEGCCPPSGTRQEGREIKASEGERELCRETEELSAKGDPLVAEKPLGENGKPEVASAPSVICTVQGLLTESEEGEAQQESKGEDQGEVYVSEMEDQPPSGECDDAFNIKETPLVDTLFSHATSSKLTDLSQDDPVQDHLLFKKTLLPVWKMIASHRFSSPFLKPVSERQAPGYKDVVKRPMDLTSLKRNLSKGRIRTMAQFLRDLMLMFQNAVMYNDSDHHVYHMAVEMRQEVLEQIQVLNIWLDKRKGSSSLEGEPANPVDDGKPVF
Receptor-type tyrosine-protein kinase FLT3 (Homo sapiens), sequence (P36888 whole entry): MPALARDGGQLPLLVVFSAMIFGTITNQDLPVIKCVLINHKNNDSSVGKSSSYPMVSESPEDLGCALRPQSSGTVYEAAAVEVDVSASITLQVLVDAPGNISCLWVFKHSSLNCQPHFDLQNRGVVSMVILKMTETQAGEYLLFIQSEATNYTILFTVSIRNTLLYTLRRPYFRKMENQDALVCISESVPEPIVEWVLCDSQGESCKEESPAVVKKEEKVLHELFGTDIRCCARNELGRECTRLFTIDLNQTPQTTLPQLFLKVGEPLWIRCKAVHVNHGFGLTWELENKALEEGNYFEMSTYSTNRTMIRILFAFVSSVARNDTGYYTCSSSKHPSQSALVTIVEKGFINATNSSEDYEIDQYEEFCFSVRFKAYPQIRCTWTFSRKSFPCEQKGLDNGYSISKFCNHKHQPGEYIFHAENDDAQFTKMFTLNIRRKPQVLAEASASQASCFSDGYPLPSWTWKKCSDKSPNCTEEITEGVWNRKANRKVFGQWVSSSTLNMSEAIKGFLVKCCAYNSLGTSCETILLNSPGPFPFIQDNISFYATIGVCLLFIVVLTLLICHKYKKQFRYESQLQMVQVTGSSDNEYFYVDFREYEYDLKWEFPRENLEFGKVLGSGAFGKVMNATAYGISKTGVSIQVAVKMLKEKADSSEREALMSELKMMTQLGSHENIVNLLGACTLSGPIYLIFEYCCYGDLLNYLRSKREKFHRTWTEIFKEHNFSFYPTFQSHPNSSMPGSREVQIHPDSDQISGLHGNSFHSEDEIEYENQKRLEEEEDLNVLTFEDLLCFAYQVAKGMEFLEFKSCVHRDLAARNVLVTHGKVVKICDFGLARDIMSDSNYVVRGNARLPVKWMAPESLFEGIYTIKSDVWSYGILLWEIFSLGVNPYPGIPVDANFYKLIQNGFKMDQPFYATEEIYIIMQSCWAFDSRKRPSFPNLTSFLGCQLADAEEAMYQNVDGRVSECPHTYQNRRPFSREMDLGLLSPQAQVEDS

Compound `C/C=C/Cn1cc(-c2ccc(C(C)(C)O)cc2OC)c2cc[nH]c2c1=O` has an IC50 (CAL-120) of 20 µM, an IC50 [1] of 15 µM and an IC50 (KARPAS-422) of 20 µM. For the same compound, the IC50 (COLO 205) was 20 µM, the IC50 (MEL-JUSO) was 20 µM and the IC50 [2] was 20 µM. The IC50 (GTL 16 cell line) was 20 µM, the IC50 (SW480) was 20 µM and the inhibition [3] was 4%. The IC50 (BT-549) was 12.2 µM, the IC50 [4] was 20 µM and the IC50 (NCI-H2009) was 20 µM. For the same compound, the IC50 [5] was 20 µM, the Activity (Homo sapiens) was 15% and the IC50 [6] was 20 µM. For the same compound, the IC50 (AU565) was 20 µM, the Kd [7] was > 10 µM and the IC50 (DAN-G) was 20 µM. The Kd [8] was > 10 µM, the inhibition [9] was 15% and the IC50 (MFM-223) was 11.6 µM.
With `C/C=C/Cn1cc(-c2cc(OC)c(C(C)(C)O)cc2OC)c2cc(C)[nH]c2c1=O` the Kd [7] was > 10 µM and the Kd [8] was > 10 µM.
With `C/C=C/Cn1cc(-c2ccc(C(=O)N3CCOCC3)cc2)c2cc[nH]c2c1=O` the IC50 (CAL-120) was 20 µM, the IC50 [1] was 20 µM and the IC50 (KARPAS-422) was 14.4 µM. It also gave an IC50 (COLO 205) of 20 µM, an IC50 (MEL-JUSO) of 20 µM and an IC50 [2] of 20 µM. The IC50 (GTL 16 cell line) was 20 µM, the IC50 (SW480) was 20 µM and the inhibition [3] was 0.8%. It also gave an IC50 (BT-549) of 20 µM, an IC50 [4] of 20 µM and an IC50 (NCI-H2009) of 20 µM. The IC50 [5] was 20 µM, the Activity (Homo sapiens) was 4% and the IC50 [6] was 5.21 µM. The IC50 (AU565) was 20 µM, the Kd [7] was > 10 µM and the IC50 (DAN-G) was 20 µM. For the same compound, the Kd [8] was > 10 µM, the inhibition [9] was 4.4% and the IC50 (MFM-223) was 20 µM.
For `C/C=C/Cn1cc(-c2cc(OC)c(C(=O)N3CCOCC3)cc2OC)c2cc(C)[nH]c2c1=O`, the IC50 (CAL-120) was 2 µM, the IC50 [1] was 2 µM and the IC50 (KARPAS-422) was 2 µM. It also gave an IC50 (COLO 205) of 2 µM, an IC50 (MEL-JUSO) of 2 µM and an IC50 [2] of 2 µM. The IC50 (GTL 16 cell line) was 2 µM, the IC50 (SW480) was 2 µM and the inhibition [3] was 4%. It also gave an IC50 (BT-549) of 2 µM, an IC50 [4] of 2 µM and an IC50 (NCI-H2009) of 2 µM. For the same compound, the IC50 [5] was 2 µM, the Activity (Homo sapiens) was 14% and the IC50 [6] was 2 µM. For the same compound, the IC50 (AU565) was 2 µM, the Kd [7] was > 10 µM and the IC50 (DAN-G) was 2 µM. The Kd [8] was > 10 µM, the inhibition [9] was 6% and the IC50 (MFM-223) was 1.46 µM.
